Results reported in patent US11938123B2, “Use of 2,3,5-substituted thiophene compound to prevent, ameliorate, or treat breast cancers” (Pharos iBio Co., Ltd., priority 2018, dated 2024).

How the values were obtained:
MCF7 [1] = assay: Cell viability, olaparib alone or with PHI-101 (Example 3); assay type: cell-based; conditions: Homo sapiens, medium instead of PHI-101, 72 hours
Procedure: (§1) Each of the breast cancer cell lines shown in Table 5 below was cultured with DMEM (Dulbecco's Modified Eagle Medium) or RPMI1640 in a 100-mm culture dish (SPL), and then diluted to a density of 3,000 cells/90 μl using PBS (phosphate-buffered saline) (Biosesang).
(§2) Thereafter, 90 μl of each of the diluted breast cancer cell lines was treated with 10 μl of a 1:2 serial dilution of olaparib to a final concentration of up to 100 μM, and cultured under 5% CO2 at 37° C. for 1 hour. Then, each breast cancer cell line was treated with a hydrochloride salt of PHI-101 to a final concentration of 1 μM. Groups treated with olaparib alone were additionally treated with 10μ of medium instead of PHI-101. Thereafter, each cell line was cultured under 5% CO2 at 37° C. for 72 hours. Then, the cells were counted using a Celltiter-Glo assay kit (Promega), and cell viability was measured by expressing the cell count as a percentage relative to that of a control group not treated with PHI-101 and olaparib.
(§3) IC50 for each breast cancer cell line was calculated by sigmoidal curve fitting using the PRIZM software, and the results of the calculation are shown in Table 6 below.

SK-BR-3 [2] = assay: as above; assay type: cell-based; conditions: Homo sapiens, medium instead of PHI-101, 72 hours
Procedure: as §1, §2, §3

MDA-MB-468 [3] = assay: as above; assay type: cell-based; conditions: Homo sapiens; MDA-MB-468 (triple-negative); medium instead of PHI-101; 72 hours
Procedure: as §1, §2, §3

BT474 [4] = assay: as above; assay type: cell-based; conditions: Homo sapiens, BT-474, medium instead of PHI-101, 72 hours
Procedure: as §1, §2, §3

HS578T [5] = assay: as above; assay type: cell-based; conditions: Homo sapiens, Hs-578T; HS578T (triple-negative); medium instead of PHI-101; 72 hours
Procedure: as §1, §2, §3

JIMT1 [6] = assay: as above; assay type: cell-based; conditions: Homo sapiens, JIMT-1, medium instead of PHI-101, 72 hours
Procedure: as §1, §2, §3

ZR-75-1 [7] = assay: as above; assay type: cell-based; conditions: Homo sapiens, medium instead of PHI-101, 72 hours
Procedure: as §1, §2, §3

T47D [8] = assay: as above; assay type: cell-based; conditions: Homo sapiens, medium instead of PHI-101, 72 hours
Procedure: as §1, §2, §3

[9] = Mouse body weight change in MDA-MB-468 tumor model (Example 5); assay type: in vivo, NOD SCID female mice; conditions: MDA-MB-468 tumor mice; olaparib 50 mg/kg/day, PHI-101 60 mg/kg/day; 28 days; FIG. 14
Procedure: (§4) As mice, 6-8-week-old NOD SCID female mice (18 to 22 g) (GemPharmatech Co., Ltd) were prepared. The mice were quarantined for 7 days before use in the experiment, and mice with abnormal health were excluded from the experiment. The mice were housed in cages (300×180×150 mm) at 22±3° C. and a relative humidity of 40% to 70% under a 12-hour light/12-hour dark cycle. During the entire experimental period except for the period specified by the protocol, the mice were allowed to freely access sterilized dry granular food (Beijing Keaoxieli Feed Co., Ltd., Beijing, China) and water.
(§5) For tumor induction, MDA-MB-468 breast cancer cells (1×10^7) in 0.1 ml of a mixture (1:1) of L-15 and Matrigel (BD, cat. No. 356234) were injected subcutaneously into the right flank of each mouse. […] Then, five mice were allocated for each group so that the average tumor volume was the same between the groups at the time point of treatment.
The body weight of each mouse was measured twice a week, and the change (%) in body weight (BW) was calculated using the following equation. BW change (%)=(BWPG-Dx/BWPG-D1)×100
In order to evaluate whether PHI-101 and/or olaparib affected the body weight of each mouse, the change in the body weight of each mouse was analyzed according to Example 5-1-5.

MDA-MB-468 [10] = assay: Tumor inhibitory activity in mice with MDA-MB-468 tumors (Example 5); assay type: in vivo, NOD SCID female mice; conditions: MDA-MB-468 tumors in mice; olaparib 50 mg/kg/day, PHI-101 60 mg/kg/day; treated 28 days
Procedure: (§6) The breast cancer cell line MDA-MB-468 was monolayer-cultured in an L-15 medium supplemented with 10% heat-inactivated fetal bovine serum under 5% CO2 at 37° C. The tumor cells were subcultured so as not to exceed passages 4 to 5 before confluence by trypsin-EDTA treatment. The tumor cells growing in an exponential growth phase were harvested and counted for tumor inoculation.
as §4, §5
Measurement of the tumor volume was performed with calipers twice a week. The tumor volume (TV) (mm^3) was calculated using the following equation. TV=a×b^2/2
The tumor growth inhibition (TGI) rate was calculated according to the following equation using the tumor volume. TGI (%)=(1−T/C)×100
T=final tumor volume of experimental group/initial tumor volume of experimental group
C=final tumor volume of control group/initial tumor volume of control group
In order to evaluate whether PHI-101 and/or olaparib affects tumor inhibition in the mice, the volume and growth inhibition rate of the tumor generated by the breast cancer cell line MDA-MB-468 transplanted into the mice were analyzed according to Example 5-1-6.

MDA-MB-231 = assay: Breast cancer cell line viability, PHI-101 alone (Example 1); assay type: cell-based; conditions: Homo sapiens; MDA-MB-231, triple-negative breast cancer; 72 hours; Celltiter-Glo
Procedure: (§7) Each of the breast cancer cell lines shown in Table 1 below was cultured with DMEM (Dulbecco's Modified Eagle Medium) or RPMI1640 in a 100-mm culture dish (SPL) under 5% CO2 at 37° C., and then diluted to a density of 3,000 cells/90 μl using PBS (phosphate-buffered saline) (Biosesang).
(§8) Next, 90 μl of each of the diluted breast cancer cell lines was treated with 10 μl of a 1:2 serial dilution of a hydrochloride salt of the compound represented by Formula 1 (hereinafter referred to as “PHI-101”) to a final concentration of up to 100 μM, and then cultured under 5% CO2 at 37° C. for 72 hours. After culture, the cells were counted using a Celltiter-Glo assay kit (Promega), and cell viability was measured by expressing the cell count as a percentage relative to that of a control group not treated with PHI-101.
(§9) The IC50 of PHI-101 for each breast cancer cell line was calculated by sigmoidal curve fitting using the PRIZM software, and the results of the calculation are shown in Table 2 below. It was confirmed that PHI-101 had excellent ability to inhibit the breast cancer cell lines, and that PHI-101 also had excellent ability to inhibit the triple-negative breast cancer cell lines (FIGS. 1 to 3).

HCC1937 = assay: as above; assay type: cell-based; conditions: Homo sapiens; HCC1937, triple-negative breast cancer; 72 hours; Celltiter-Glo
Procedure: as §7, §8, §9

MCF7 [11] = assay: as above; assay type: cell-based; conditions: Homo sapiens; MCF7, non-triple-negative breast cancer; 72 hours; Celltiter-Glo
Procedure: as §7, §8, §9

SK-BR-3 [12] = assay: as above; assay type: cell-based; conditions: Homo sapiens; SK-BR-3, non-triple-negative breast cancer; 72 hours; Celltiter-Glo
Procedure: as §7, §8, §9

MDA-MB-468 [13] = assay: as above; assay type: cell-based; conditions: Homo sapiens; MDA-MB-468, triple-negative breast cancer; 72 hours; Celltiter-Glo
Procedure: as §7, §8, §9

MDA-MB-435 = assay: as above; assay type: cell-based; conditions: Homo sapiens; MDA-MB-435, triple-negative breast cancer; 72 hours; Celltiter-Glo
Procedure: as §7, §8, §9

BT474 [14] = assay: as above; assay type: cell-based; conditions: Homo sapiens, BT-474; BT474, non-triple-negative breast cancer; 72 hours; Celltiter-Glo
Procedure: as §7, §8, §9

HS578T [15] = assay: as above; assay type: cell-based; conditions: Homo sapiens, Hs-578T, triple-negative breast cancer, 72 hours, Celltiter-Glo
Procedure: as §7, §8, §9

JIMT1 [16] = assay: as above; assay type: cell-based; conditions: Homo sapiens, JIMT-1; JIMT1, non-triple-negative breast cancer; 72 hours; Celltiter-Glo
Procedure: as §7, §8, §9

ZR-75-1 [17] = assay: as above; assay type: cell-based; conditions: Homo sapiens; ZR-75-1, non-triple-negative breast cancer; 72 hours; Celltiter-Glo
Procedure: as §7, §8, §9

BT549 [18] = assay: as above; assay type: cell-based; conditions: Homo sapiens, BT-549; BT549, triple-negative breast cancer; 72 hours; Celltiter-Glo
Procedure: as §7, §8, §9

T47D [19] = assay: as above; assay type: cell-based; conditions: Homo sapiens, non-triple-negative breast cancer, 72 hours, Celltiter-Glo
Procedure: as §7, §8, §9

JIMT-1 = assay: Tumor inhibitory activity in mice with Herceptin-resistant JIMT-1 tumors (Example 6); assay type: in vivo, NOD SCID female mice; conditions: JIMT-1 tumors in mice; PHI-101 60 mg/kg/day vs Herceptin 5 mg/kg/day; 3 weeks; FIG. 16
Procedure: as §6, with “The Herceptin-resistant breast cancer” for “The breast cancer”, “cell line JIMT-1 was monolayer-cultured” for “cell line MDA-MB-468 was monolayer-cultured”
As mice, 7-8-week-old NOD SCID female mice (20 to 22 g) (GemPharmatech Co., Ltd.) were prepared. The mice were quarantined for 7 days before use in the experiment, and mice with abnormal health were excluded from the experiment. The mice were housed in cages (300×180×150 mm) at 22±3° C. and a relative humidity of 40% to 70% under a 12-hour light/12-hour dark cycle. […]
Measurement of the tumor volume was performed with calipers twice a week. The tumor volume (TV) (mm^3) was calculated using the following equation. […]
The tumor growth inhibition (TGI) rate was calculated according to the following equation using the tumor volume. […]
In order to evaluate whether PHI-101 has an effect on tumor inhibition in the mice, the volume and growth inhibition rate of the tumor generated by the breast cancer cell line JIMT-1 transplanted into the mice were analyzed by performing Example 6-1-5.

MCF7 [20] = assay: Cell viability, PHI-101 alone or with cisplatin (Example 2); assay type: cell-based; conditions: Homo sapiens, medium instead of cisplatin, 72 hours
Procedure: (§10) Each of the breast cancer cell lines shown in Table 3 below was cultured using RPMI-1640 in a 100-mm culture dish, and then diluted to a density of 3,000 cells/90 μl using PBS.
(§11) Thereafter, 90 μl of each of the diluted breast cancer cell lines was treated with 10 μl of a 1:2 serial dilution of a hydrochloride salt of PHI-101 to a final concentration of up to 100 μM and cultured under 5% CO2 at 37° C. for 1 hour, and then treated with cisplatin at an IC50 concentration for each cell line. Groups treated with PHI-101 alone were additionally treated with 10 μl of medium instead of cisplatin. Next, each of the cell lines was cultured under 5% CO2 at 37° C. for 72 hours. Next, the cells were counted using a Celltiter-Glo assay kit (Promega), and cell viability was measured by expressing the cell count as a percentage relative to that of a control group not treated with PHI-101 and cisplatin.
(§12) IC50 for each breast cancer cell line was calculated by sigmoidal curve fitting using the PRIZM software, and the results of the calculation are shown in Table 4 below.

BT474 [21] = assay: as above; assay type: cell-based; conditions: Homo sapiens, BT-474, medium instead of cisplatin, 72 hours
Procedure: as §10, §11, §12

ZR-75-1 [22] = assay: as above; assay type: cell-based; conditions: Homo sapiens, medium instead of cisplatin, 72 hours
Procedure: as §10, §11, §12

BT549 [23] = assay: as above; assay type: cell-based; conditions: Homo sapiens, BT-549; BT549 (triple-negative); medium instead of cisplatin; 72 hours
Procedure: as §10, §11, §12

T47D [24] = assay: as above; assay type: cell-based; conditions: Homo sapiens, medium instead of cisplatin, 72 hours
Procedure: as §10, §11, §12

## O=C(c1cc(Cc2n[nH]c(=O)c3ccccc23)ccc1F)N1CCN(C(=O)C2CC2)CC1 [olaparib]
MCF7 [1]
  IC50: 98 µM
SK-BR-3 [2]
  IC50: 127 µM
MDA-MB-468 [3]
  IC50: 47.1 µM
BT474 [4]
  IC50: 74.6 µM
HS578T [5]
  IC50: 186 µM
JIMT1 [6]
  IC50: 520 µM
ZR-75-1 [7]
  IC50: 352 µM
T47D [8]
  IC50: 77 µM
[9]
  Change in the body weight of each mouse: no significant change
MDA-MB-468 [10]
  T/C: 76%
  TGI: 24%
  Tumor volume (52 days): 402 ± 25 mm^3

## NC(=O)Nc1cc(C#Cc2cccc(F)c2)sc1C(=O)N[C@H]1CCCNC1 [PHI-101, (S)-5-((3-fluorophenyl)ethynyl)-N-(piperidin-3-yl)-3-ureido thiophene-2-carboxamide]
MDA-MB-231
  IC50: 4.97 µM
HCC1937
  IC50: 4.03 µM
MCF7 [11]
  IC50: 3.71 µM
SK-BR-3 [12]
  IC50: 4.11 µM
MDA-MB-468 [13]
  IC50: 3.74 µM
MDA-MB-435
  IC50: 1.51 µM
BT474 [14]
  IC50: 14.7 µM
HS578T [15]
  IC50: 1.8 µM
JIMT1 [16]
  IC50: 0.27 µM
ZR-75-1 [17]
  IC50: 11.4 µM
BT549 [18]
  IC50: 1.63 µM
T47D [19]
  IC50: 17.8 µM
[9]
  Change in the body weight of each mouse: no significant change
JIMT-1
  Growth inhibition rate of the Herceptin-resistant tumor, compared with Herceptin group: higher
MCF7 [20]
  IC50: 3.23 µM
BT474 [21]
  IC50: 14.3 µM
ZR-75-1 [22]
  IC50: 11.8 µM
BT549 [23]
  IC50: 1.71 µM
T47D [24]
  IC50: 19.2 µM
MDA-MB-468 [10]
  T/C: 84%
  TGI: 16%
  Tumor volume (52 days): 443 ± 18 mm^3
